Tests used:
[1] = system: DYRK1A protein; assay: Western blot of DYRK1A protein levels in hippocampus; type: in vivo, mouse; settings: hippocampus of Ts2Cje mice, 21 days intranasal treatment
Description: Finally, animals were sacrificed using cervical dislocation. […] For Western blots, 20 μg of proteins from the hippocampus of mice belonging to the four experimental groups were separated by 4-15% SDS-PAGE CriterionTM […] (Bio-rad, Hercules, CAUSE). […] Therefore, the gel, once the image has been acquired, represents the total of the loaded proteins (Total Load), which will then be used to normalize the specific proteins to be examined. After electrophoresis and gel imaging, proteins are transferred via the semi-dry TransBlot Turbo apparatus (Bio-Rad Laboratories) onto nitrocellulose membranes (Bio-Rad, Hercules, CA, USA). Nitrocellulose membranes are blocked with 3% bovine serum albumin (BSA) in a solution of Tween 20-TBS and incubated overnight at 4° C. using specific primary antibodies: p([…])-GSK3B (1:1000, Santa Cruz, #sc-135653), p(S9)-GSK3β (1:1000, Cell Signaling, #5558S), GSK3β (1:1000 Abcam, #93926) and DYRK1A (1:1000, Cell Signaling, #8765S), MAPK44/42 (1:1000, Cell Signaling, #9102), p[…])-MAPK44/42 (1 1000, Cell Signaling, #9101), Akt (1:2000, Bio-Rad, # vma00253K), p(S473) Akt (1:1000, Cell Signaling, #4060S). After three washes with a T-TBS buffer solution, membranes were incubated for 1 hour at room temperature with the secondary antibodies. […] Finally, the results obtained were analyzed using the ImageLab program (Bio-rad, Hercules, CA, USA).

[2] = system: GSK3b protein; assay: GSK3b activation (pSer9/pTyr216 ratio) in primary hippocampal neurons isolated from Ts2Cje mice; type: cell-based, mouse; settings: 1, 5, 10 μM for 24 hours
Description: For Western blots, 20 μg of proteins from the hippocampus of mice belonging to the four experimental groups were separated by 4-15% SDS-PAGE CriterionTM […] (Bio-rad, Hercules, CAUSE). […] Therefore, the gel, once the image has been acquired, represents the total of the loaded proteins (Total Load), which will then be used to normalize the specific proteins to be examined. After electrophoresis and gel imaging, proteins are transferred via the semi-dry TransBlot Turbo apparatus (Bio-Rad Laboratories) onto nitrocellulose membranes (Bio-Rad, Hercules, CA, USA). Nitrocellulose membranes are blocked with 3% bovine serum albumin (BSA) in a solution of Tween 20-TBS and incubated overnight at 4° C. using specific primary antibodies: p([…])-GSK3B (1:1000, Santa Cruz, #sc-135653), p(S9)-GSK3β (1:1000, Cell Signaling, #5558S), GSK3β (1:1000 Abcam, #93926) and DYRK1A (1:1000, Cell Signaling, #8765S), MAPK44/42 (1:1000, Cell Signaling, #9102), p[…])-MAPK44/42 (1 1000, Cell Signaling, #9101), Akt (1:2000, Bio-Rad, # vma00253K), p(S473) Akt (1:1000, Cell Signaling, #4060S). After three washes with a T-TBS buffer solution, membranes were incubated for 1 hour at room temperature with the secondary antibodies. Secondary antibodies with peroxidase activity are anti-mouse or anti-rabbit (1:5000, Bio-rad, Hercules, CA, USA). […] Finally, the results obtained were analyzed using the ImageLab program (Bio-rad, Hercules, CA, USA). […] In order to isolate primary hippocampal neurons, hippocampi from Ts and euploid mice were mechanically dissociated in PBS (with Ca^2+ and […]) and centrifuged (3 minutes, 1100 rpm, 25° C.). Subsequently, the pellet was resuspended in 0.25% trypsin solution and centrifuged further for 3 minutes at 1100 rpm at Tamb. At this point, the cell extract was resuspended in MEM 1 culture medium (Minimum Essential Medium complemented with fetal bovine serum (FBS-1%), L-glutamine 200 mM (1%), glucose 25 mM (1%), gentamicin 0.1 mg/ml) and centrifuged for 10 minutes, 1100 rpm at 25° C. […]

[3] = system: oxidative stress levels (3-NT, 4-HNE); assay: Slot blot of oxidative stress markers 3-NT and 4-HNE in hippocampus; type: in vivo, mouse
Description: The samples (250 μl per well) were loaded into the wells of the slot-blot apparatus and transferred to a nitrocellulose membrane. The membrane was blocked for 2 h with a 3% solution of bovine serum albumin in T-TBS, and incubated with a primary anti-HNE polyclonal antibody (1:3000; HNE, NOVUS, #NB100-63093) or anti-3-NT (1:1000; Sigma Aldrich, #SAB52000009), for 2 hours at room temperature. The membrane was washed with T-TBS and incubated with alkaline phosphatase conjugated anti-rabbit or anti-mouse secondary antibody (1:5000, Sigma Aldrich) for 1 hour at room temperature. […] Finally, the results obtained were analyzed using the ImageLab program (Bio-rad, Hercules, CA, USA).

N[C@@H](CC(=O)N1CCn2c(nnc2C(F)(F)F)C1)Cc1cc(F)c(F)cc1F [sitagliptin, (R)-4-oxo-4-[3-(trifluoromethyl)-5,6-dihydro[1,2,4]triazole[4,3-a]pyrazin-7(8H)-yl]-1-(2,4,5-trifluorophenyl)butan-2-amine]
expression levels of the DYRK1A protein [1]: significant reduction | activity of the GSK3B protein in Ts2Cje neurons [2]: significant increase | oxidative stress levels (3-NT, 4-HNE) [3]: reduction

Reference: patent US12636284B2, “Compositions for use in the prevention and/or treatment of intellectual disability and neurodegenerative diseases in a subject with down syndrome” (UNIVERSITA' DEGLI STUDI DI ROMA “LA SAPIENZA”, priority 2021, dated 2026)
